Measurements from patent US20200131132A1, “FARNESOID X RECEPTOR AGONISTS AND USES THEREOF” (Metacrine, Inc., priority 2017, published 2020).

Target: T1, hFXR (Homo sapiens, UniProt Q96RI1)
T1 construct: expressed in transfected cells; host or cells: CV-1 cells
T1 sequence (Q96RI1 1-486): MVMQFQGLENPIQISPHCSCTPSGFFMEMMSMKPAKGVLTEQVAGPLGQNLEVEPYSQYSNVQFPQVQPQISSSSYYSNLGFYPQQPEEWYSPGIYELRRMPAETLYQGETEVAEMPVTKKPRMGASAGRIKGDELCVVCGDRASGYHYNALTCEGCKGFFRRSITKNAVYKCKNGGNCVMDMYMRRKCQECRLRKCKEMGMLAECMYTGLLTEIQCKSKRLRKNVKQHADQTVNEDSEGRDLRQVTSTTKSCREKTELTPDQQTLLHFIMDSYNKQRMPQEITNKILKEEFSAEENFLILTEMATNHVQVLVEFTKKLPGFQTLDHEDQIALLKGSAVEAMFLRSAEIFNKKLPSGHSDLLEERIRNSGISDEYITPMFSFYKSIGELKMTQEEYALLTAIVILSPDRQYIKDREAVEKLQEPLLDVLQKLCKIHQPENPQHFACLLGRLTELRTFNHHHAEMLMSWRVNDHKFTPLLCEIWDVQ
T1 sequence (P19793 1-462 partner): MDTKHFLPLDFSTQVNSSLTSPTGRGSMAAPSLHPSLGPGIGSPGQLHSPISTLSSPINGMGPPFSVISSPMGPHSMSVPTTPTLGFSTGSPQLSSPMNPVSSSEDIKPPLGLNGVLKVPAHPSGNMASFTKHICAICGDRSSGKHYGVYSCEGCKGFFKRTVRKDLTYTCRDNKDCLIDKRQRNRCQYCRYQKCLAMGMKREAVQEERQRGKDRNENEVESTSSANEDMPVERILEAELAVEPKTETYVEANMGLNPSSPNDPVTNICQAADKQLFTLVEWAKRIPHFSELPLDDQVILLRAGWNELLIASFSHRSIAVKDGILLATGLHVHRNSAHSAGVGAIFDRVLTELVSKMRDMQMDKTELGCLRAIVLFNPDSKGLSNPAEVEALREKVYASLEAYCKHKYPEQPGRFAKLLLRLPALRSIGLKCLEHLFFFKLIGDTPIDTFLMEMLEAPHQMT
Test: In Vitro FXR Assay (TK)
Format: cell-based
Settings: CV-1 cells transfected with hFXR, hRXR, TK-ECRE-luc and pCMX-YFP; compounds incubated 18 hrs; luminescence
Protocol: CV-1 cells were seeded at a density of 2,000,000 cells in a T175 flask with DMEM+10% charcoal double-stripped FBS and incubated at 37° C. in 5% CO2 for 18 h (O/N).
After 18 h of incubation, the medium in the T175 flask was changed with fresh DMEM+10% charcoal super-stripped serum. In a polypropylene tube, 2500 μL OptiMEM (Life Technologies, Cat #31985-062) was combined with expression plasmids for hFXR, hRXR, TK-ECRE-luc and pCMX-YFP. The tube was then briefly vortexed and incubated at room temperature for 5 minutes. Transfection reagent (X-tremeGENE HP from Roche, Cat #06 366 236 001) was added to the OptiMEM/plasmid mixture vortexed and incubated at room temperature for 20 minutes. Following incubation, the transfection reagent/DNA mixture complex was added to cells in the T175 flask and the cells were incubated at 37° C. in 5% CO2 for 18 h (O/N).
Compounds were serially diluted in DMSO and added to transfected CV-1 cells. The cells were then incubated for 18 hrs. The next day cells were lysed and examined for luminescence.

Row | EC50 [nM] | SMILES
1 | ≤ 1000 | COc1ccc(-c2ccc(CN(C(=O)CC(C)(C)C)c3nccc4cc(N5CCCC5)ccc34)cc2)cc1C [Compound 6.08, N-((4′-Methoxy-3′-methyl-[1,1′-biphenyl]-4-yl)methyl)-3,3-dimethyl-N-(6-(pyrrolidin-1-yl)isoquinolin-1-yl)butanamide]
2 | 1000 to 10000 | COc1ccc(-c2ccc(CN(C(=O)CC(C)(C)C)c3nccc4ccc(C#N)cc34)cc2)cc1C [Compound 13, N-(7-Cyanoisoquinolin-1-yl)-N-((4′-methoxy-3′-methyl-[1,1′-biphenyl]-4-yl)methyl)-3,3-dimethylbutanamide]
3 | ≤ 1000 | COc1ccc(-c2ccc(CN(C(=O)CC(C)(C)C)c3nccc4cc(OCCCO)cnc34)cc2)cc1C [Compound 8.13, N-(3-(3-Hydroxypropoxy)-1,7-naphthyridin-8-yl)-N-((4′-methoxy-3′-methyl-[1,1′-biphenyl]-4-yl)methyl)-3,3-dimethylbutanamide]
4 | ≤ 1000 | COc1ccc(-c2ccc(CN(C(=O)CC(C)(C)C)c3nccc4cc(OCC[S+](C)[O-])ccc34)cc2)cc1C (centres unmarked) [Compound 33, N-((4′-Methoxy-3′-methyl-[1,1′-biphenyl]-4-yl)methyl)-3,3-dimethyl-N-(6-(2-(methylsulfinyl)ethoxy)isoquinolin-1-yl)butanamide]
5 | ≤ 1000 | COc1ccc(-c2ccc(CN(C(=O)CC(C)(C)C)c3nccc4cc(C(=O)N(C)C)ccc34)cc2)cc1C [Compound 19, 1-(N-((4′-Methoxy-3′-methyl-[1,1′-biphenyl]-4-yl)methyl)-3,3-dimethylbutanamido)-N,N-dimethylisoquinoline-6-carboxamide]
6 | 1000 to 10000 | COc1ccc(-c2ccc(CN(C(=O)CC(C)(C)C)c3nccc4cc(OC5CNC5)ccc34)cc2)cc1C [Compound 28.01, N-(6-(Azetidin-3-yloxy)isoquinolin-1-yl)-N-((4′-methoxy-3′-methyl-[1,1′-biphenyl]-4-yl)methyl)-3,3-dimethylbutanamide]
7 | ≤ 1000 | COc1ccc(-c2ccc(CN(C(=O)CC(C)(C)C)c3nccc4cc(CO)ccc34)cc2)cc1C [Compound 2.01, N-(6-(Hydroxymethyl)isoquinolin-1-yl)-N-((4′-methoxy-3′-methyl-[1,1′-biphenyl]-4-yl)methyl)-3,3-dimethylbutanamide]
8 | ≤ 1000 | COc1ccc(-c2ccc(CN(C(=O)CC(C)(C)C)c3nccc4cc(N(C)C)ccc34)cc2)cc1C [Compound 6.1, N-(6-(Dimethylamino)isoquinolin-1-yl)-N-((4′-methoxy-3′-methyl-[1,1′-biphenyl]-4-yl)methyl)-3,3-dimethylbutanamide]
9 | ≤ 1000 | COc1ccc(-c2ccc(CN(C(=O)CC(C)(C)C)c3nccc4cc(N5CCC(OC)C5)ccc34)cc2)cc1C (centres unmarked) [Compound 6.19, N-((4′-Methoxy-3′-methyl-[1,1′-biphenyl]-4-yl)methyl)-N-(6-(3-methoxypyrrolidin-1-yl)isoquinolin-1-yl)-3,3-dimethylbutanamide]
10 | ≤ 1000 | COc1ccc(-c2ccc(CN(C(=O)CC(C)(C)C)c3nccc4cc(Br)ccc34)cc2)cc1C [Compound 4, N-(6-Bromoisoquinolin-1-yl)-N-((4′-methoxy-3′-methyl-[1,1′-biphenyl]-4-yl)methyl)-3,3-dimethylbutanamide]
11 | ≤ 1000 | COc1ccc(-c2ccc(CN(C(=O)CC(C)(C)C)c3nccc4cc(C)ccc34)cc2)cc1C [Compound 12, N-((4′-Methoxy-3′-methyl-[1,1′-biphenyl]-4-yl)methyl)-3,3-dimethyl-N-(6-methylisoquinolin-1-yl)butanamide]
12 | ≤ 1000 | COc1ccc(-c2ccc(CN(C(=O)CC(C)(C)C)c3nccc4cc(OC(C)CCO)ccc34)cc2)cc1C (centres unmarked) [Compound 10.01, N-(6-((4-Hydroxybutan-2-yl)oxy)isoquinolin-1-yl)-N-((4′-methoxy-3′-methyl-[1,1′-biphenyl]-4-yl)methyl)-3,3-dimethylbutanamide]
13 | ≤ 1000 | COCCCOc1ccc2c(N(Cc3ccc(-c4ccc(OC)c(C)c4)cc3)C(=O)CC(C)(C)C)nccc2c1 [Compound 8.08, N-((4′-Methoxy-3′-methyl-[1,1′-biphenyl]-4-yl)methyl)-N-(6-(3-methoxypropoxy)isoquinolin-1-yl)-3,3-dimethylbutanamide]
14 | ≤ 1000 | COc1ccc(-c2ccc(CN(C(=O)CC(C)(C)C)c3nccc4cc(OC(C)C)ccc34)cc2)cc1C [Compound 11.01, N-(6-Isopropoxyisoquinolin-1-yl)-N-((4′-methoxy-3′-methyl-[1,1′-biphenyl]-4-yl)methyl)-3,3-dimethylbutanamide]
15 | ≤ 1000 | COc1ccc(-c2ccc(CN(C(=O)CC(C)(C)C)c3nccc4cc(C(C)O)ccc34)cc2)cc1C (centres unmarked) [Compound 26, N-(6-(1-Hydroxyethyl)isoquinolin-1-yl)-N-((4′-methoxy-3′-methyl-[1,1′-biphenyl]-4-yl)methyl)-3,3-dimethylbutanamide]
16 | ≤ 1000 | COc1ccc(-c2ccc(CN(C(=O)CC(C)(C)C)c3nccc4cc(N5CCCC(O)C5)ccc34)cc2)cc1C (centres unmarked) [Compound 6.17, N-(6-(3-Hydroxypiperidin-1-yl)isoquinolin-1-yl)-N-((4′-methoxy-3′-methyl-[1,1′-biphenyl]-4-yl)methyl)-3,3-dimethylbutanamide]
17 | ≤ 1000 | COc1ccc(-c2ccc(CN(C(=O)CC(C)(C)C)c3nccc4cc(CCO)ccc34)cc2)cc1C [Compound 25, N-(6-(2-Hydroxyethyl)isoquinolin-1-yl)-N-((4′-methoxy-3′-methyl-[1,1′-biphenyl]-4-yl)methyl)-3,3-dimethylbutanamide]
18 | ≤ 1000 | COc1ccc(-c2ccc(CN(C(=O)CC(C)(C)C)c3nccc4cc(N5CCCCC5)ccc34)cc2)cc1C [Compound 6.07, N-((4′-Methoxy-3′-methyl-[1,1′-biphenyl]-4-yl)methyl)-3,3-dimethyl-N-(6-(piperidin-1-yl)isoquinolin-1-yl)butanamide]
19 | 1000 to 10000 | CNC(=O)c1ccc2c(N(Cc3ccc(-c4ccc(OC)c(C)c4)cc3)C(=O)CC(C)(C)C)nccc2c1 [Compound 19.01, 1-(N-((4′-Methoxy-3′-methyl-[1,1′-biphenyl]-4-yl)methyl)-3,3-dimethylbutanamido)-N-methylisoquinoline-6-carboxamide]
20 | 1000 to 10000 | COc1ccc2c(N(Cc3ccc(-c4ccc(OC)c(C)c4)c(CO)c3)C(=O)CC(C)(C)C)nccc2c1 [Compound 21.01, N-((2-(Hydroxymethyl)-4′-methoxy-3′-methyl-[1,1′-biphenyl]-4-yl)methyl)-N-(6-methoxyisoquinolin-1-yl)-3,3-dimethylbutanamide]
21 | ≤ 1000 | COc1ccc(-c2ccc(CN(C(=O)CC(C)(C)C)c3nccc4cc(OCC(N)=O)ccc34)cc2)cc1C [Compound 8.03, N-(6-(2-Amino-2-oxoethoxy)isoquinolin-1-yl)-N-((4′-methoxy-3′-methyl-[1,1′-biphenyl]-4-yl)methyl)-3,3-dimethylbutanamide]
22 | ≤ 1000 | CCOc1ccc2c(N(Cc3ccc(-c4ccc(OC)c(C)c4)cc3)C(=O)CC(C)(C)C)nccc2c1 [Compound 11, N-(6-Ethoxyisoquinolin-1-yl)-N-((4′-methoxy-3′-methyl-[1,1′-biphenyl]-4-yl)methyl)-3,3-dimethylbutanamide]
23 | ≤ 1000 | COc1ccc(-c2ccc(CN(C(=O)CC(C)(C)C)c3nccc4cc(NCCO)ccc34)cc2)cc1C [Compound 6.02, N-(6-((2-Hydroxyethyl)amino)isoquinolin-1-yl)-N-((4′-methoxy-3′-methyl-[1,1′-biphenyl]-4-yl)methyl)-3,3-dimethylbutanamide]
